Experiment [1] has as its target T1, Renin (Homo sapiens) (UniProt P00797).
T1 sequence (whole entry): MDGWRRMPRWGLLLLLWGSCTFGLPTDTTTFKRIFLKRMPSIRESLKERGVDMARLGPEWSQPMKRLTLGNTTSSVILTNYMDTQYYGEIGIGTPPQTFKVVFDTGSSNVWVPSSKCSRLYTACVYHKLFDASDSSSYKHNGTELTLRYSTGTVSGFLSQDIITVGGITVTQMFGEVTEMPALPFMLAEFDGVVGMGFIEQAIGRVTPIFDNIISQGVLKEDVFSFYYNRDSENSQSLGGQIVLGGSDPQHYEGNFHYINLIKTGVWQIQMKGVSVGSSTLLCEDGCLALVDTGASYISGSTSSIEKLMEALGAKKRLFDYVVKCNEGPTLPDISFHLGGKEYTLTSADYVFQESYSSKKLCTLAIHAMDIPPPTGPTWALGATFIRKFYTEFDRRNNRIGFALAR
Description: Inhibition of recombinant human N-terminal FLAG-tagged renin (67 to 406 residues) expressed in HEK cells at 50 nM using Arg-Glu(EDANS)-Ile-His-Pro-Phe-His-Leu-Val-Ile-His-Thr-Lys(Dabcyl)-Arg as substrate preincubated for 10 mins followed by substrate addition and measured by FRET assay.

For experiment [2], the system named is Ixodes ricinus. The experiment can be described thus: Inhibition of Ixodes ricinus CatD expressed in Escherichia coli BL21(DE3) at 50 nM using Abz-Lys-Pro-Ala-Glu-Phe-Nph-Ala-Leu as substrate preincubated for 10 mins followed by substrate addition and measured by FRET assay.
The target in experiment [3] is Cathepsin D (Homo sapiens, UniProt P07339). Description: Inhibition of human placenta CatD using Abz-Lys-Pro-Ala-Glu-Phe-Nph-Ala-Leu as substrate preincubated for 10 mins followed by substrate addition and measured by FRET assay.
The target of experiment [4] is T1, Renin (Homo sapiens). The experiment can be described thus: Inhibition of recombinant human N-terminal FLAG-tagged renin (67 to 406 residues) expressed in HEK cells at 5 uM using Arg-Glu(EDANS)-Ile-His-Pro-Phe-His-Leu-Val-Ile-His-Thr-Lys(Dabcyl)-Arg as substrate preincubated for 10 mins followed by substrate addition and measured by FRET assay.
In experiment [5] the target is Protease (Human immunodeficiency virus 1) (UniProt Q9YQ12). Description: Inhibition of HIV1 protease at 5 uM using Abz-Tyr-Ile-Nle-Nph-Gln-Arg as substrate preincubated for 10 mins followed by substrate addition and measured by FRET assay.
Experiment [6] concerns the target Beta-secretase 1 (Homo sapiens) (UniProt P56817). The experiment can be described thus: Inhibition of recombinant human C-terminal 10His-tagged BACE1 expressed in mouse NS0 cells at 50 nM using Mca-Ser-Glu-Val-Asn-Leu-Asp-Ala-Glu-Phe-Arg-Lys(Dnp)-Arg-Arg as substrate preincubated for 10 mins followed by substrate addition and measured by FRET assay.
The target in experiment [7] is Protease (Human immunodeficiency virus 1) (UniProt Q9YQ12). Description: Inhibition of HIV1 protease at 50 nM using Abz-Tyr-Ile-Nle-Nph-Gln-Arg as substrate preincubated for 10 mins followed by substrate addition and measured by FRET assay.
The target in experiment [8] is Beta-secretase 1 (Homo sapiens) (UniProt P56817). Description: Inhibition of recombinant human C-terminal 10His-tagged BACE1 expressed in mouse NS0 cells at 5 uM using Mca-Ser-Glu-Val-Asn-Leu-Asp-Ala-Glu-Phe-Arg-Lys(Dnp)-Arg-Arg as substrate preincubated for 10 mins followed by substrate addition and measured by FRET assay.
Experiment [9] addresses Saccharopepsin (Saccharomyces cerevisiae S288c) (UniProt P07267). Description: Inhibition of Baker's yeast proteinase A at 50 nM using Abz-Lys-Pro-Ala-Glu-Phe-Nph-Ala-Leu as substrate preincubated for 10 mins followed by substrate addition and measured by FRET assay.

Activity calls are given as the source filed them. The calls are words filed in the database; no cut-off is given here. Non-standard residues stand in square brackets, D forms with d. Residues, ends and D or L forms follow the SMILES beside them. *: point of attachment. Sta = CC(C)C[C@H](N)[C@@H](O)CC(=O)O; Isovaleryl = CC(C)CC(=O)*

Sequence of Saccharopepsin (Saccharomyces cerevisiae S288c) (P07267 whole entry): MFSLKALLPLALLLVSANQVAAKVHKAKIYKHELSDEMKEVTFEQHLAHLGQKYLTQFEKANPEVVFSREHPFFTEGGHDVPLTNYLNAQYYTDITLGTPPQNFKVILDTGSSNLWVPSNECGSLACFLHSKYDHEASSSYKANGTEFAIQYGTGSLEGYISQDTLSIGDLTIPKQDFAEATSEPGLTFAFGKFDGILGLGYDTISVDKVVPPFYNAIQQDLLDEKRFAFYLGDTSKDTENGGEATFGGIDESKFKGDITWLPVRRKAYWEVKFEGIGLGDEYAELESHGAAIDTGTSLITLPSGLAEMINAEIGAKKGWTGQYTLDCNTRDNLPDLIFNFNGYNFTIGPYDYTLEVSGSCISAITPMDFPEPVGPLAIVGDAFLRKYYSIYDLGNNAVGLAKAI
Sequence of Beta-secretase 1 (Homo sapiens) (P56817 whole entry): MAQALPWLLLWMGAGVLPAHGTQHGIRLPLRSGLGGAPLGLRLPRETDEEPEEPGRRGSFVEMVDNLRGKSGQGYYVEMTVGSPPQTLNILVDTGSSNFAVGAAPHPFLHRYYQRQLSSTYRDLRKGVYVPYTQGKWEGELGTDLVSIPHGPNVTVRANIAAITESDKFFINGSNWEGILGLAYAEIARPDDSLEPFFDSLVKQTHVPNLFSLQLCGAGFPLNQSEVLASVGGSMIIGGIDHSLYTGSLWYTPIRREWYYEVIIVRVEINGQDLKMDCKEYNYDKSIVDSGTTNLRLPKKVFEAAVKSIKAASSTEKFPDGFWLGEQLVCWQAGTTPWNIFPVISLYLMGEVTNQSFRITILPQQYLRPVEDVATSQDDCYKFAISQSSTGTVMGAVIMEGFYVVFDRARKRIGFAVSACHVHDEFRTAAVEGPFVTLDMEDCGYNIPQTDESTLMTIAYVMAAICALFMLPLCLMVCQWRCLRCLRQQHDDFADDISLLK
Sequence of Cathepsin D (P07339 65-162 limits assumed): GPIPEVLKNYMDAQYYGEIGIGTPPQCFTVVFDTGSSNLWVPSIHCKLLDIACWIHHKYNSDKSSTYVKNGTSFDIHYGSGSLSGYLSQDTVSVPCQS
Sequence of Cathepsin D (P07339 169-412 limits assumed): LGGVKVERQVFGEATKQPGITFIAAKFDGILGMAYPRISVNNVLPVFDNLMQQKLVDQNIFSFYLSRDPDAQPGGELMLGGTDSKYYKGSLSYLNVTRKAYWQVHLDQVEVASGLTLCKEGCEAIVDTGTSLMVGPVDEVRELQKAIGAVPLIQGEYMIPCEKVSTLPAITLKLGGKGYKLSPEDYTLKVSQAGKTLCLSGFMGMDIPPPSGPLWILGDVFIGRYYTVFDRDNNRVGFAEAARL
Sequence of Protease (Human immunodeficiency virus 1) (Q9YQ12 as listed by the source): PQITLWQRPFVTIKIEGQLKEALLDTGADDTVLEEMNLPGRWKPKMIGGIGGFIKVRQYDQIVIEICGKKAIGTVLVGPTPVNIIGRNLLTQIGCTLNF

In the case of `CC(C)[C@@H]1NC(=O)C[C@H](O)[C@H](Cc2ccc(O)cc2)NC(=O)CCCCCCCCCCCNC1=O`, the inhibition entry in experiment [1], in experiment [6] and in [7] was “inactive” each time. Further, the inhibition entry in [2], in experiment [4], in experiment [5], in experiment [8] and in experiment [9] was “Active” throughout. This compound also came in with an IC50 in experiment [3] of 39 nM.
Regarding `CC(C)[C@@H]1NC(=O)C[C@H](O)[C@H](CSCc2ccccc2)NC(=O)CCCCCCCCCCCNC1=O`, the inhibition result in experiment [1], in experiment [6] and in experiment [7] was “inactive” each time. In addition, the inhibition result in [2], in experiment [4], in experiment [5], in [8] and in experiment [9] was “Active” throughout. This compound gave an IC50 in experiment [3] of 20 nM.
In the case of `CC(C)C[C@@H]1NC(=O)CCCCCCCCCCCNC(=O)[C@H](C)NC(=O)C[C@@H]1O`, the inhibition entry in experiment [1], in experiment [6] and in [7] was “inactive” throughout. The inhibition result in experiment [2], in experiment [4], in [5], in experiment [8] and in experiment [9] was “Active” in each case. Moreover, in experiment [3], the IC50 is 310 nM.
For `CC(C)[C@@H]1NC(=O)C[C@H](O)[C@H](Cc2ccccc2)NC(=O)CCCCCCCCCCCNC1=O`, the inhibition result in experiment [1], in experiment [6] and in [7] was “inactive” in each case. Besides, the inhibition result in experiment [2], in experiment [4], in [5], in [8] and in experiment [9] was “Active” in each case. For the same compound, in experiment [3], the concentration for half-maximal inhibition (IC50) worked out at 5.8 nM.
Consider `C[C@@H](OCc1ccccc1)[C@@H]1NC(=O)C[C@H](O)[C@H](Cc2ccccc2)NC(=O)CCCCCCCCCCCNC1=O`, for which the inhibition result in experiment [1], in experiment [6] and in experiment [7] was “inactive” in each case. For the same compound, the inhibition result in experiment [2], in experiment [4], in experiment [5], in experiment [8] and in experiment [9] was “Active” each time. For the same compound, the half-inhibitory concentration (IC50) in experiment [3] was found to be 560 nM.
For `CC(C)[C@@H]1NC(=O)C[C@H](O)[C@H](Cc2ccccc2)NC(=O)CCCCCCCCCCCCNC1=O`, the inhibition entry in [1], in experiment [6] and in [7] was “inactive” each time. The inhibition entry in experiment [2], in experiment [4], in experiment [5], in [8] and in experiment [9] was “Active” each time. The IC50 in experiment [3] was determined as 3.5 nM.
Take `CC(C)[C@@H]1NC(=O)C[C@H](O)[C@H](Cc2ccccc2)NC(=O)CCOCCOCCOCCNC1=O`: the inhibition entry in experiment [1], in [6] and in experiment [7] was “inactive” in each case. For the same compound, the inhibition result in experiment [2], in [4], in [5], in experiment [8] and in experiment [9] was “Active” each time. Further, in experiment [3], the 50% inhibitory concentration (IC50) was found to be 850 nM.
In experiment [3], `CC(C)CC(=O)N[C@@H](CC(C)C)[C@@H](O)CC(=O)N[C@@H](C)C(=O)O` came in with an IC50 of over 200000 nM.
Regarding `CC(C)[C@@H]1NC(=O)C[C@H](O)[C@H](Cc2ccc(F)c(F)c2)NC(=O)CCCCCCCCCCCNC1=O`, the inhibition result in experiment [1], in experiment [6] and in experiment [7] was “inactive” in each case. The inhibition entry in experiment [2], in experiment [4], in [5], in experiment [8] and in experiment [9] was “Active” each time. In addition, the midpoint of inhibition in experiment [3], the IC50, lay at 3.1 nM.
Turning to `O=C1C[C@H](O)[C@H](Cc2ccccc2)NC(=O)CCCCCCCCCCCNC(=O)[C@H](C2CCCCC2)N1`, the inhibition entry in [1], in experiment [6] and in experiment [7] was “inactive” throughout. For the same compound, the inhibition entry in experiment [2], in [4], in experiment [5], in experiment [8] and in experiment [9] was “Active” each time. The compound further yielded a half-maximal inhibitory concentration (IC50) in [3] of 8.2 nM.
For the compound `CC(C)[C@@H]1NC(=O)CC[C@H](Cc2ccccc2)NC(=O)CCCCCCCCCCCNC1=O`, the inhibition entry in experiment [1], in experiment [6] and in experiment [7] was “inactive” in each case. For the same compound, the inhibition result in experiment [2], in experiment [4], in [5], in experiment [8] and in [9] was “Active” throughout. In experiment [3], this compound had an IC50 of 2000 nM.
As for `CC(C)[C@@H]1NC(=O)C[C@H](O)[C@H](Cc2ccc(Cl)c(Cl)c2)NC(=O)CCCCCCCCCCCNC1=O`, the inhibition result in [1], in [6] and in [7] was “inactive” throughout. Besides, the inhibition entry in experiment [2], in experiment [4], in experiment [5], in experiment [8] and in experiment [9] was “Active” throughout. The compound also had a half-inhibitory concentration (IC50) in experiment [3] of 4.2 nM.
Turning to `C[C@@H]1NC(=O)C[C@H](O)[C@H](Cc2ccccc2)NC(=O)CCCCCCCCCCCNC1=O`, the inhibition result in experiment [1], in [6] and in [7] was “inactive” throughout. The inhibition entry in experiment [2], in experiment [4], in experiment [5], in experiment [8] and in [9] was “Active” throughout. Further, it took 68 nM to reach half-maximal inhibition in experiment [3] (IC50).
Regarding `CC(C)[C@@H]1NC(=O)NC[C@H](O)[C@H](Cc2ccccc2)NC(=O)CCCCCCCCCCCNC1=O`, the inhibition entry in experiment [1], in experiment [6] and in [7] was “inactive” in each case. Also, the inhibition result in [2], in experiment [4], in experiment [5], in [8] and in experiment [9] was “Active” in each case. In [3], this compound came in with an IC50 of 21 nM.
On to `CC(C)[C@@H]1NC(=O)C[C@H](O)[C@H](CS)NC(=O)CCCCCCCCCCCNC1=O`, for which the inhibition result in experiment [1], in [6] and in experiment [7] was “inactive” throughout. Besides, the inhibition entry in [2], in [4], in [5], in experiment [8] and in experiment [9] was “Active” each time. The compound further gave an IC50 in experiment [3] of 340 nM.
In turn, `CC(C)CC(=O)N[C@H](C(=O)N[C@H](C(=O)N[C@@H](CC(C)C)[C@@H](O)CC(=O)N[C@@H](C)C(=O)O)C(C)C)C(C)C` (Isovaleryl-VV[Sta]A-OH) registered a concentration for half-maximal inhibition (IC50) in experiment [3] of 40 nM. This lies in the double-digit nanomolar range.
Consider `CC(C)CC(=O)N[C@H](C(=O)N[C@H](C(=O)N[C@@H](CC(C)C)[C@@H](O)CC(=O)O)C(C)C)C(C)C` (Isovaleryl-Val-Val-[Sta]-OH), for which the IC50 in experiment [3] turned out to be 500 nM.
Regarding `CC(C)CC(=O)N[C@@H](CC(C)C)[C@@H](O)CC(=O)N[C@@H](C)C(=O)N[C@@H](CC(C)C)[C@@H](O)CC(=O)O`, the concentration for half-maximal inhibition (IC50) in experiment [3] came out at 2500 nM.

By IC50 is commonly meant the midpoint of a concentration-inhibition curve.

(Values after ChEMBL document CHEMBL4321885, “Biomimetic Macrocyclic Inhibitors of Human Cathepsin D: Structure-Activity Relationship and Binding Mode Analysis” (J Med Chem, 2020).)
